Source: patent US6319915A, “Benzazepine derivatives as inhibitors of hyperproliferation diseases” (Pfizer Inc., priority 2000, dated 2001)

target: T1, VEGF/GAG (glycosaminoglycan) (Homo sapiens, UniProt P15692); test: in vitro inhibition of VEGF/GAG (glycosaminoglycan) binding ([125I]heparin-16-mer / VEGF165 filter binding); settings: purified VEGF165 20 nM, 60 minutes at room temperature, 0.16% DMSO
T1 construct: purchased Repligen, Inc
T1 sequence (P15692 1-191 isoform P15692-4): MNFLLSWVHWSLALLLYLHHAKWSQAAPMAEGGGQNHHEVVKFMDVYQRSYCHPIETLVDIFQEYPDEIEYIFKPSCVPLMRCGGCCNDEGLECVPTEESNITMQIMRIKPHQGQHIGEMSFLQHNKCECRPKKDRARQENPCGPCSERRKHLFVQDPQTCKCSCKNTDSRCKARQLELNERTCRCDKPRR
Description: The in vitro activity of the compounds of formula I in inhibiting VEGF/GAG (glycosaminoglycan) binding may be measured using the assay described in U.S. Pat. No. 5,795,860, the subject matter of which is incorporated herein by reference.
Using mixed cellulose ester 96-well filter plates, 150 μL of Dulbeccos PBS (phosphate buffered saline) containing 10% ovalbumin is added. Compound (5.0 μL) is added at a final concentration of […]. Compounds are dissolved in 8% DMSO (final DMSO concentration is 0.16%) and tested at concentrations of 32, 10, 3.2, 1.0, 0.32 and 0.10 μM. A mixture of [^125 I]heparin-16-mer (4500 cpm per well), purified VEGF165 (20 nM final concentration/well, prepared by Repligen, Inc.) and Dulbeccos PBS with 10% ovalbumin is added to the 96-well plate in a volume of 100 μL. Nonspecific binding is defined using 10 μM heparin-sodium from porcine intestinal mucosa. The assay plate is incubated for 60 minutes at room temperature, filtered using a Millipore filtration apparatus, the plastic bottom plate is removed and the filter plate is allowed to completely dry. The plate bottom is sealed with plastic plate seal and 25 μL of scintillation cocktail is added to each well. The top plate is sealed and is counted for radioactivity on a Microbeta Scintillation Counter. The assay is run in a final volume of 250 μL.

**Q.** For `CC1(C)CCCC(C)(C)N1C(=O)CN1C(=O)C(NC(=O)Nc2cccc(-c3nnn[nH]3)c2)COc2cc(F)ccc21` (centres unmarked) [1-{3-Fluoro-8-oxo-9-[2-oxo-2-(2,2,6,6-tetramethyl-piperidin-1-yl)-ethyl]-6,7,8,9-tetrahydro-5-oxa-9-aza-benzocyclohepten-7-yl}-3-[3-(1H-tetrazol-5-yl)-phenyl]-urea], which IC50 is on record?
**A.** Its IC50 is 1700 nM.

**Q.** For `CC1(C)CN(C(=O)CN2C(=O)C(NC(=O)Nc3cccc(-c4nnn[nH]4)c3)COc3cc(F)ccc32)CC(C)(C)C1` (centres unmarked) [1-{3-Fluoro-8-oxo-9-[2-oxo-2-(3,3,5,5-tetramethyl-piperidin-1-yl)-ethyl]-6,7,8,9-tetrahydro-5-oxa-9-aza-benzocyclohepten-7-yl}-3-[3-(1H-tetrazol-5-yl)-phenyl]-urea], which IC50 is on record?
**A.** The IC50 was 3700 nM.

**Q.** For `CC1(C)CN(C(=O)CN2C(=O)C(NC(=O)Nc3cccc(-c4nnn[nH]4)c3)CSc3ccccc32)CC(C)(C)C1` (centres unmarked) [1-{4-Oxo-5-[2-oxo-2-(3,3,5,5-tetramethyl-piperidin-1-yl)-ethyl]-2,3,4,5-tetrahydro-benzo[b][1,4]thiazepin-3-yl}-3-[3-(1H-tetrazol-5-yl)-phenyl]-urea], which IC50 is on record?
**A.** Its IC50 is 6700 nM.

**Q.** For `COc1ccccc1C1CC(NC(=O)Nc2cccc(-c3nnn[nH]3)c2)C(=O)N(CC(=O)NC2(C)CCCCC2)C(c2ccccc2)C1` (centres unmarked) [2-(5-(2-Methoxy-phenyl)-2-oxo-7-phenyl-3-{3-[3-(1H-tetrazol-5-yl)-phenyl]-ureido}-azepan-1-yl)-N-(1-methyl-cyclohexyl)-acetamide], which IC50 is on record?
**A.** The IC50 was 1900 nM.

**Q.** With `COc1ccccc1C1CC(NC(=O)Nc2cccc(C(=O)NS(C)(=O)=O)c2)C(=O)N(CC(=O)NC2(C)CCCCC2)C(c2ccccc2)C1` (centres unmarked) [2-[3-[3-(3-Methanesulfonylaminocarbonyl-phenyl)-ureido]-5-(2-methoxy-phenyl)-2-oxo-7-phenyl-azepan-1-yl]-N-(1-methyl-cyclohexyl)-acetamide] as the molecule, how does the IC50 read?
**A.** Its IC50 is 3000 nM.

**Q.** `Cc1ccccc1C1CC(NC(=O)Nc2ccc3[nH]nnc3c2)C(=O)N(CC(=O)NC(C)(C)C)C(c2ccccc2)C1` (centres unmarked) [2-{3-[3-(1H-Benzotriazol-5-yl)-ureido]-2-oxo-7-phenyl-5-o-tolyl-azepan-1-yl}-N-tert-butyl-acetamide] was tested. Which IC50 did it give?
**A.** Its IC50 is 1600 nM.

**Q.** With `Cc1ccccc1C1CC(NC(=O)Nc2cccc(C(=O)NS(=O)(=O)c3ccccc3)c2)C(=O)N(CC(=O)NC(C)(C)C)C(c2ccccc2)C1` (centres unmarked) [2-{3-[3-(3-Benzenesulfonylaminocarbonyl-phenyl)-ureido]-2-oxo-7-phenyl-5-o-tolyl-azepan-1-yl}-N-tert-butyl-acetamide] as the molecule, how does the IC50 read?
**A.** The IC50 was 1400 nM.

**Q.** For `Cc1ccccc1C1CC(NC(=O)Nc2cccc(C(=O)Nc3nnn[nH]3)c2)C(=O)N(CC(=O)NC2(C)CCCCC2)C(c2ccccc2)C1` (centres unmarked) [3-(3-{1-[(1-Methyl-cyclohexylcarbamoyl)-methyl]-2-oxo-7-phenyl-5-o-tolyl-azepan-3-yl}-ureido)-N-(1H-tetrazol-5-yl)-benzamide], which IC50 is on record?
**A.** The IC50 was 2300 nM.

**Q.** `COc1ccccc1C1CC(NC(=O)Nc2cccc(C(=O)Nc3nnn[nH]3)c2)C(=O)N(CC(=O)NC2(C)CCCCC2)C(c2ccccc2)C1` (centres unmarked) [3-(3-{5-(2-Methoxy-phenyl)-1-[(1-methyl-cyclohexylcarbamoyl)-methyl]-2-oxo-7-phenyl-azepan-3-yl}-ureido)-N-(1H-tetrazol-5-yl)-benzamide] was tested. Which IC50 did it give?
**A.** The IC50 was 900 nM.

**Q.** For `Cc1ccccc1C1CC(NC(=O)Nc2cccc(C(=O)Nc3nnc(C(F)(F)F)s3)c2)C(=O)N(CC(=O)NC(C)(C)C)C(c2ccccc2)C1` (centres unmarked) [3-{3-[1-(tert-Butylcarbamoyl-methyl)-2-oxo-7-phenyl-5-o-tolyl-azepan-3-yl]-ureido}-N-(5-trifluoromethyl-[1,3,4]thiadiazol-2-yl)-benzamide], which IC50 is on record?
**A.** Its IC50 is 8600 nM.

**Q.** `Cc1ccccc1C1CC(NC(=O)Nc2cccc(C(=O)O)c2)C(=O)N(CC(=O)NC(C)(C)C)C(c2ccccc2)C1` (centres unmarked) [3-{3-[1-(tert-Butylcarbamoyl-methyl)-2-oxo-7-phenyl-5-o-tolyl-azepan-3-yl]-ureido}-benzoic acid] was tested. Which IC50 did it give?
**A.** The IC50 was 20000 nM.

**Q.** How did the IC50 turn out when `COc1ccccc1C1CC(NC(=O)Nc2cccc(C(=O)Nc3nnn[nH]3)c2)C(=O)N(CC(=O)NC(C)(C)C)C(c2ccccc2)C1` (centres unmarked) [3-{3-[1-(tert-Butylcarbamoyl-methyl)-5-(2-methoxy-phenyl)-2-oxo-7-phenyl-azepan-3-yl]-ureido}-N-(1H-tetrazol-5-yl)-benzamide] was run?
**A.** The IC50 was 1700 nM.

**Q.** Which IC50 does the source give for `COc1ccccc1C1CC(NC(=O)Nc2cccc(C(=O)O)c2)C(=O)N(CC(=O)NC(C)(C)C)C(c2ccccc2)C1` (centres unmarked) [3-{3-[1-(tert-Butylcarbamoyl-methyl)-5-(2-methoxy-phenyl)-2-oxo-7-phenyl-azepan-3-yl]-ureido}-benzoic acid] here?
**A.** Its IC50 is 4300 nM.

**Q.** For `Cc1ccc2c(c1)N(CC(=O)NC(C)(C)C)C(=O)C(NC(=O)Nc1cccc(C(=O)O)c1)CC2c1ccccc1` (centres unmarked) [3-{3-[1-(tert-Butylcarbamoyl-methyl)-8-methyl-2-oxo-5-phenyl-2,3,4,5-tetrahydro-1H-benzo[b]azepin-3-yl]-ureido}-benzoic acid], which IC50 is on record?
**A.** The IC50 was 9800 nM.

**Q.** Which IC50 does the source give for `Cc1ccccc1C1CC(NC(=O)Nc2cccc(-c3nnn[nH]3)c2)C(=O)N(CC(=O)NC2(C)CCCCC2)C(c2ccccc2)C1` (centres unmarked) [N-(1-Methyl-cyclohexyl)-2-(2-oxo-7-phenyl-3-{3-[3-(1H-tetrazol-5-yl)-phenyl]-ureido}-5-o-tolyl-azepan-1-yl)-acetamide] here?
**A.** The IC50 was 2000 nM.

**Q.** `Cc1ccccc1C1CC(NC(=O)Nc2cccc(C(=O)NS(=O)(=O)C(F)(F)F)c2)C(=O)N(CC(=O)NC2(C)CCCCC2)C(c2ccccc2)C1` (centres unmarked) [N-(1-Methyl-cyclohexyl)-2-{2-oxo-7-phenyl-5-o-tolyl-3-[3-(3-trifluoromethanesulfonylaminocarbonyl-phenyl)-ureido]-azepan-1-yl}-acetamide] was tested. Which IC50 did it give?
**A.** Its IC50 is 1700 nM.

**Q.** How did the IC50 turn out when `Cc1ccccc1C1CC(NC(=O)Nc2cccc(-c3nnn[nH]3)c2)C(=O)N(CC(=O)NC(C)(C)C)C(c2ccccc2)C1` (centres unmarked) [N-tert-Butyl-2-(2-oxo-7-phenyl-3-{3-[3-(1H-tetrazol-5-yl)-phenyl]-ureido}-5-o-tolyl-azepan-1-yl)-acetamide] was run?
**A.** Its IC50 is 3700 nM.

**Q.** `COc1ccccc1C1CC(NC(=O)Nc2cccc(-c3nnn[nH]3)c2)C(=O)N(CC(=O)NC(C)(C)C)C(c2ccccc2)C1` (centres unmarked) [N-tert-Butyl-2-(5-(2-methoxy-phenyl)-2-oxo-7-phenyl-3-{3-[3-(1H-tetrazol-5-yl)-phenyl]-ureido}-azepan-1-yl)-acetamide] was tested. Which IC50 did it give?
**A.** The IC50 was 700 nM.

**Q.** With `Cc1ccc2c(c1)N(CC(=O)NC(C)(C)C)C(=O)C(NC(=O)Nc1cccc(-c3nnn[nH]3)c1)CC2C1CCCCC1` (centres unmarked) [N-tert-Butyl-2-(5-cyclohexyl-8-methyl-2-oxo-3-{3-[3-(1H-tetrazol-5-yl)-phenyl]-ureido}-2,3,4,5-tetrahydro-benzo[b]azepin-1-yl)-acetamide] as the molecule, how does the IC50 read?
**A.** The IC50 was 4300 nM.

**Q.** How did the IC50 turn out when `COc1ccccc1C1CC(NC(=O)Nc2cccc(C(=O)NS(C)(=O)=O)c2)C(=O)N(CC(=O)NC(C)(C)C)C(c2ccccc2)C1` (centres unmarked) [N-tert-Butyl-2-[3-[3-(3-methanesulfonylaminocarbonyl-phenyl)-ureido]-5-(2-methoxy-phenyl)-2-oxo-7-phenyl-azepan-1-yl]-acetamide] was run?
**A.** The IC50 was 5800 nM.

**Q.** For `Cc1ccccc1C1CC(NC(=O)Nc2cccc(C(=O)NS(=O)(=O)Cc3ccccc3)c2)C(=O)N(CC(=O)NC(C)(C)C)C(c2ccccc2)C1` (centres unmarked) [N-tert-Butyl-2-{2-oxo-7-phenyl-3-[3-(3-phenylmethanesulfonylaminocarbonyl-phenyl)-ureido]-5-o-tolyl-azepan-1-yl}-acetamide], which IC50 is on record?
**A.** Its IC50 is 2400 nM.

**Q.** `Cc1ccc2c(c1)N(CC(=O)NC(C)(C)C)C(=O)C(NC(=O)Nc1cccc(C(=O)NS(C)(=O)=O)c1)CC2c1ccccc1` (centres unmarked) [N-tert-Butyl-2-{3-[3-(3-methanesulfonylaminocarbonyl-phenyl)-ureido]-8-methyl-2-oxo-5-phenyl-2,3,4,5-tetrahydro-benzo[b]azepin-1-yl}-acetamide] was tested. Which IC50 did it give?
**A.** Its IC50 is 11000 nM.

**Q.** For `Cc1cccc(NC(=O)NC2CC(c3ccccc3C)CC(c3ccccc3)N(CC(=O)O)C2=O)c1` (centres unmarked) [[2-Oxo-7-phenyl-5-o-tolyl-3-(3-m-tolyl-ureido)-azepan-1-yl]-acetic acid], which IC50 is on record?
**A.** The IC50 was 2400 nM.
